This passage reports Ki results from ChEMBL document CHEMBL5727833, “MALT1 inhibitors and uses thereof” (2020).

Structures are written as SMILES. Some results are limits rather than exact numbers.

The assay has as its target T1, Mucosa-associated lymphoid tissue lymphoma translocation protein 1 (Homo sapiens, UniProt Q9UDY8).
T1 sequence (Q9UDY8 whole entry): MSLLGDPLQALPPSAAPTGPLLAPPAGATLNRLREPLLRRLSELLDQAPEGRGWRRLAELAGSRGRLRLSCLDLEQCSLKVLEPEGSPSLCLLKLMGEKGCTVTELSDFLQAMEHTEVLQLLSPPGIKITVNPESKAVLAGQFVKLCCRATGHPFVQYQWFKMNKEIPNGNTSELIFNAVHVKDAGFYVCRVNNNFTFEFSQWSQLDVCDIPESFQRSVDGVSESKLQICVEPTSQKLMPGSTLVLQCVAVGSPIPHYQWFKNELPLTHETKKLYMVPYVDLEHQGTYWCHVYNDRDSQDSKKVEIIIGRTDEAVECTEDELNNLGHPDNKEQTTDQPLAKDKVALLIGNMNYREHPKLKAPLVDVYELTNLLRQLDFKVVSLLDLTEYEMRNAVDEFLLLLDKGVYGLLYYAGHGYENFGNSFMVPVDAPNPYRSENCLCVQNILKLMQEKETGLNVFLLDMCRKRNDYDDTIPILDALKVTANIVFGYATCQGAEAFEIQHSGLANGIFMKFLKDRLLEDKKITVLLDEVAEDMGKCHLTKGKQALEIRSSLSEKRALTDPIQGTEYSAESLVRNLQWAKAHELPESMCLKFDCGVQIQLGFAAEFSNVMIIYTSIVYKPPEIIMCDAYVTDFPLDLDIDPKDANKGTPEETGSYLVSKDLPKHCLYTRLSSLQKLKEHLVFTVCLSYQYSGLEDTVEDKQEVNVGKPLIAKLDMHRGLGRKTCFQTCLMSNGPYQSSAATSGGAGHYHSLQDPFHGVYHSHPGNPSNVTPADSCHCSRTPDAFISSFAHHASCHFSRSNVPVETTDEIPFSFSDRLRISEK
Briefly: Biological Assay: For exemplary compounds of the disclosure, Ki for inhibition of MALT1 was measured (Table E11). A concentration of 100 nM MALT1 was used for the assay.

As a reminder, the Ki is the equilibrium dissociation constant of an inhibitor or competing ligand from its target. Read a high Ki as lower affinity.

Turning to `N=C(N)NCCC[C@H](NC(=O)[C@@H]1C[C@@H](O)CN1C(=O)[C@@H](NC(=O)c1ccc(Br)cc1)C1CCCCC1)C(=O)CF`, the affinity corresponds to a Ki of 0.034 µM.

For the compound `CC(C)c1ccc(C(=O)N[C@H](C(=O)N2CCC[C@H]2C(=O)N[C@@H](CCCNC(=N)N)C(=O)CF)C(C)C)cc1`, the affinity corresponds to a Ki of 0.022 µM.

`N=C(N)NCCC[C@H](NC(=O)[C@@H]1CCCN1C(=O)[C@H](Cc1cccnc1)NC(=O)c1ccc(Br)cc1)C(=O)CF` yielded a Ki of over 1 µM.

The compound `CC(C)[C@H](NS(=O)(=O)c1ccc(Br)cc1)C(=O)N1CCC[C@H]1C(=O)N[C@@H](CCCNC(=N)N)C(=O)CF` yielded a Ki of 0.066 µM.

Take `CC(C)[C@H](NC(=O)c1ccc(Br)c(F)c1)C(=O)N1CCC[C@H]1C(=O)N[C@@H](CCCNC(=N)N)C(=O)CF`: the Ki was found to be 0.078 µM. This Ki and that of the compound before are within 1.5-fold of each other.

`CC(C)[C@H](NC(=O)c1ccc(Br)c(C#N)c1)C(=O)N1CCC[C@H]1C(=O)N[C@@H](CCCNC(=N)N)C(=O)CF` yielded a Ki of 0.013 µM.

The compound `CC(C)[C@H](NC(=O)Nc1ccccc1Cl)C(=O)N1CCC[C@H]1C(=O)N[C@@H](CCCNC(=N)N)C(=O)CF` registered a Ki of 0.024 µM.

Regarding `Cc1nc(C(=O)N[C@H](C(=O)N2CCC[C@H]2C(=O)N[C@@H](CCCNC(=N)N)C(=O)CF)C(C)C)cs1`, the Ki was 0.052 µM.
